Eleven compounds from ChEMBL document CHEMBL2380218, “A facile chemo-, regio- and stereoselective synthesis and cholinesterase inhibitory activity of spirooxindole-pyrrolizine-piperidine hybrids” (Bioorg Med Chem Lett, 2013) can be followed below.

Molecules are shown by their SMILES.

In one test the target is Cholinesterase (Equus caballus, UniProt P81908). The test can be described thus: Inhibition of equine serum BuChE using S-butyrylthiocholine chloride as substrate incubated for 15 mins prior to substrate addition measured after 30 mins by Ellman's method.
Chain of Cholinesterase (P81908 whole entry): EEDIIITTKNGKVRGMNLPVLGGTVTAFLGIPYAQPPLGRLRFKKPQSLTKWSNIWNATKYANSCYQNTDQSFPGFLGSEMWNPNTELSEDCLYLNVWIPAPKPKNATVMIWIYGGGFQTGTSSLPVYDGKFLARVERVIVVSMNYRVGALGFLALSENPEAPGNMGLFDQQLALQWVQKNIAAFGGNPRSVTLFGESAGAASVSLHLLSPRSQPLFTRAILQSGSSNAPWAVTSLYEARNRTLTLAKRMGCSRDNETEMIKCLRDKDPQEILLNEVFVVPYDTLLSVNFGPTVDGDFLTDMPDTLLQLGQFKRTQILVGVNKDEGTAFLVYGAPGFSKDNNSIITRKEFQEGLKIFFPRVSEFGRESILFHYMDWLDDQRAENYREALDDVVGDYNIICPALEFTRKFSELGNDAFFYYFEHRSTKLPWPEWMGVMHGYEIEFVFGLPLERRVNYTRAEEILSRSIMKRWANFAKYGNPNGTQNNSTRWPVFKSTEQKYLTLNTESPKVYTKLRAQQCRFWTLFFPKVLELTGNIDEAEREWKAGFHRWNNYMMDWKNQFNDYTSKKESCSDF
For the next test, the target named is Acetylcholinesterase (Homo sapiens, UniProt P22303). The test can be described thus: Inhibition of AChE (unknown origin) using acetylthiocholine iodide as substrate incubated for 15 mins prior to substrate addition measured after 30 mins by Ellman's method. For orientation: DTNB colorimetry detects thiols as they appear.
Chain of Acetylcholinesterase (P22303 whole entry): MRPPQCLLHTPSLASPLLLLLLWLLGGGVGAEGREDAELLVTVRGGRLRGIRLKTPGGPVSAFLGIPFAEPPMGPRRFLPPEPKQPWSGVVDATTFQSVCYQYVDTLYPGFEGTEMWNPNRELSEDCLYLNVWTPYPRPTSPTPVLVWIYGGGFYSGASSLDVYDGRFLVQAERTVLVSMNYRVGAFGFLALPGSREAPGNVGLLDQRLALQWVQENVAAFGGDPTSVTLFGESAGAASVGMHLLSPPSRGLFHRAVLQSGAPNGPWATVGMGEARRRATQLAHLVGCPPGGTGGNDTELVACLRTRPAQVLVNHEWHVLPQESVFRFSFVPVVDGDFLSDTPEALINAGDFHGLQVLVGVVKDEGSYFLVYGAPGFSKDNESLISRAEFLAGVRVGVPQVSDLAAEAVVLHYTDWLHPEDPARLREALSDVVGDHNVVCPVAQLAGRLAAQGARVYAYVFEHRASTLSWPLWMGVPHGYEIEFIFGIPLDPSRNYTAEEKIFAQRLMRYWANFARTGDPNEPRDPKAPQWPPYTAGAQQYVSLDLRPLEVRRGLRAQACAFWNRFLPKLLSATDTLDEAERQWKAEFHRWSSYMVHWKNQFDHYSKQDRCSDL

For orientation: IC50 means the concentration at which inhibition is half-maximal. High values mean lower potency, low ones higher potency.

Regarding `O=C1/C(=C/c2cccc3ccccc23)CN(C(=O)[C@H]2C[C@H]3CCCN3[C@]23C(=O)Nc2cc(Cl)ccc23)C/C1=C\c1cccc2ccccc12`, the IC50 came to 9.65 µM on Cholinesterase and 5.81 µM against Acetylcholinesterase.

Consider `O=C1/C(=C/c2ccccc2)CN(C(=O)[C@H]2C[C@H]3CCCN3[C@]23C(=O)Nc2cc(Cl)ccc23)C/C1=C\c1ccccc1`, for which the IC50 came out at 15.4 µM on Cholinesterase and 15.7 µM against Acetylcholinesterase.

With `Cc1ccccc1/C=C1\CN(C(=O)[C@H]2C[C@H]3CCCN3[C@]23C(=O)Nc2cc(Cl)ccc23)C/C(=C\c2ccccc2C)C1=O`, the concentration for half-maximal inhibition (IC50) came out at 15.1 µM on Cholinesterase and 11.2 µM against Acetylcholinesterase.

As to `COc1ccccc1/C=C1\CN(C(=O)[C@H]2C[C@H]3CCCN3[C@]23C(=O)Nc2cc(Cl)ccc23)C/C(=C\c2ccccc2OC)C1=O`, the IC50 at Cholinesterase came to 7.82 µM; at Acetylcholinesterase, 14.5 µM.

`O=C1/C(=C/c2ccccc2Cl)CN(C(=O)[C@H]2C[C@H]3CCCN3[C@]23C(=O)Nc2cc(Cl)ccc23)C/C1=C\c1ccccc1Cl`: the figures for the IC50 against Cholinesterase and against Acetylcholinesterase were 17.4 µM and 5.08 µM, respectively.

As for `O=C1/C(=C/c2ccccc2F)CN(C(=O)[C@H]2C[C@H]3CCCN3[C@]23C(=O)Nc2cc(Cl)ccc23)C/C1=C\c1ccccc1F`, the IC50 against Cholinesterase stood at 3.13 µM; at Acetylcholinesterase it was 29.5 µM.

On to `O=C1/C(=C/c2cccc([N+](=O)[O-])c2)CN(C(=O)[C@H]2C[C@H]3CCCN3[C@]23C(=O)Nc2cc(Cl)ccc23)C/C1=C\c1cccc([N+](=O)[O-])c1`, for which the figures for the IC50 on Cholinesterase and against Acetylcholinesterase were 17.2 µM and 4.28 µM, respectively.

In the case of `O=C1/C(=C/c2ccc(Cl)cc2Cl)CN(C(=O)[C@H]2C[C@H]3CCCN3[C@]23C(=O)Nc2cc(Cl)ccc23)C/C1=C\c1ccc(Cl)cc1Cl`, the IC50 against Cholinesterase turned out to be 20.1 µM; against Acetylcholinesterase, 3.33 µM.

Take `Cc1ccc(/C=C2\CN(C(=O)[C@H]3C[C@H]4CCCN4[C@]34C(=O)Nc3cc(Cl)ccc34)C/C(=C\c3ccc(C)cc3)C2=O)cc1`: the values for the IC50 on Cholinesterase and on Acetylcholinesterase were 22.2 µM and 7.6 µM, respectively.

With `O=C1/C(=C/c2ccc(Cl)cc2)CN(C(=O)[C@H]2C[C@H]3CCCN3[C@]23C(=O)Nc2cc(Cl)ccc23)C/C1=C\c1ccc(Cl)cc1`, the IC50 against Cholinesterase worked out at 28.2 µM; against Acetylcholinesterase, 3.36 µM.

With `O=C1/C(=C/c2ccc(F)cc2)CN(C(=O)[C@H]2C[C@H]3CCCN3[C@]23C(=O)Nc2cc(Cl)ccc23)C/C1=C\c1ccc(F)cc1`, the IC50 against Cholinesterase turned out to be 3.64 µM; against Acetylcholinesterase it was 22.3 µM.
